Common to all, as to assay: Transient transfection (transactivation) assay in CV-1 cells, GAL4-PPAR LBD chimera, SPAP reporter
What all share (type): cell-based

For one test, the target named is T1, hPPAR gamma (Homo sapiens, UniProt P37231).
T1 construct: expressed in transfected cells; host or cells: CV-1 cells
T1 sequence (P37231 238-503 limits assumed): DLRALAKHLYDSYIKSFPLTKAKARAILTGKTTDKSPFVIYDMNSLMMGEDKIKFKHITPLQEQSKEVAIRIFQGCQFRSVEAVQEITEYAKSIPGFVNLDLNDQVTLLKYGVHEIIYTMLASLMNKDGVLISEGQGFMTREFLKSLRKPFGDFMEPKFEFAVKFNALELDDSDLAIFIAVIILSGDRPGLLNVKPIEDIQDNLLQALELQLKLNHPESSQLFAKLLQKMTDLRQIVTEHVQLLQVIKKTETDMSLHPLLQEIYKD
To be noted: read-out: EC50 μM HPPARγ. An excerpt: Compounds were screened for functional potency in transient transfection assays in CV-1 cells for their ability to activate the PPAR subtypes (transactivation assay). A previously established chimeric receptor system was utilized to allow comparison of the relative transcriptional activity of the receptor subtypes on the same target gene and to prevent endogenous receptor activation from complicating the interpretation of results. […] The ligand binding domains for murine and human PPAR alpha, PPAR gamma, and PPAR delta were each fused to the yeast transcription factor GAL4 DNA binding domain. CV-1 cells were transiently transfected with expression vectors for the respective PPAR chimera along with a reporter construct containing five copies of the GAL4 DNA binding site driving expression of secreted placental alkaline phosphatase (SPAP) and beta-galactosidase. After 16 h, the medium was exchanged to DME medium supplemented with 10% delipidated fetal calf serum and the test compound at the appropriate concentration. After an additional 24 h, cell extracts were prepared and assayed for alkaline phosphatase and β-galactosidase activity.

A further test has as its target T2, hPPAR alpha (Homo sapiens, UniProt Q07869).
T2 construct: expressed in transfected cells; host or cells: CV-1 cells
T2 sequence (Q07869 239-466 limits assumed): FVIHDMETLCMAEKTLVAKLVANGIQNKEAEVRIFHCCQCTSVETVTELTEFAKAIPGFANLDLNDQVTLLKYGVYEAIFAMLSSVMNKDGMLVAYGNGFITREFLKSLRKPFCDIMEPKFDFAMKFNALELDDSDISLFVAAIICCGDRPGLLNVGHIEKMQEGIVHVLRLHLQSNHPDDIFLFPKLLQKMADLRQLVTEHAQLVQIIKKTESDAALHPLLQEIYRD
The note with it: read-out: EC50 μM HPPARα. From the text: (§1) Compounds were screened for functional potency in transient transfection assays in CV-1 cells for their ability to activate the PPAR subtypes (transactivation assay). A previously established chimeric receptor system was utilized to allow comparison of the relative transcriptional activity of the receptor subtypes on the same target gene and to prevent endogenous receptor activation from complicating the interpretation of results. See, for example, Lehmann, J. M.; Moore, L. B.; Smith-Oliver, T. A.; Wilkison, W. O.; Willson, T. M.; Kliewer, S. A., An antidiabetic thiazolidinedione is a high affinity ligand for peroxisome proliferator-activated receptor gamma (PPARgamma), J. Biol. Chem., 270, 12953-6 (1995). The ligand binding domains for murine and human PPAR alpha, PPAR gamma, and PPAR delta were each fused to the yeast transcription factor GAL4 DNA binding domain. CV-1 cells were transiently transfected with expression vectors for the respective PPAR chimera along with a reporter construct containing five copies of the GAL4 DNA binding site driving expression of secreted placental alkaline phosphatase (SPAP) and beta-galactosidase. After 16 h, the medium was exchanged to DME medium supplemented with 10% delipidated fetal calf serum and the test compound at the appropriate concentration. After an additional 24 h, cell extracts were prepared and assayed for alkaline phosphatase and β-galactosidase activity. Alkaline phosphatase activity was corrected for transfection efficiency using the beta-galactosidase activity as an internal standard (see, for example, Kliewer, S. A., et. al. Cell 83, 813-819 (1995)). Rosiglitazone (BRL 49653) was used as a positive control in the hPPAR gamma assay. The positive control in the hPPAR alpha assays was 2-4-[2-(3-[4-fluorophenyl]-1-heptylureido)ethyl]-phenoxy-(2-methyl propionic acid (WO 97/36579). The positive control for PPAR delta assays was 2-{2-methyl-4-[({4-methyl-2-{trifluoromethyl)phenyl]-1,3-thiazol-5-yl}methyl)sulfanyl]phenoxy}acetic acid (WO 01/00603). The positive control was (5-{4-[2-(Methyl-pyridin-2-yl-amino)-ethoxy]-benzyl}-thiazolidine-2,4-dione (J. Med. Chem. 1994, 37(23), 3977), for PPAR gamma.
(§2) Activities in three hPPAR subtypes are reported in the table and are expressed in micromolar.

The next test addresses T3, hPPAR delta (Homo sapiens, UniProt Q03181).
T3 construct: expressed in transfected cells; host or cells: CV-1 cells
T3 sequence (Q03181 211-439 limits assumed): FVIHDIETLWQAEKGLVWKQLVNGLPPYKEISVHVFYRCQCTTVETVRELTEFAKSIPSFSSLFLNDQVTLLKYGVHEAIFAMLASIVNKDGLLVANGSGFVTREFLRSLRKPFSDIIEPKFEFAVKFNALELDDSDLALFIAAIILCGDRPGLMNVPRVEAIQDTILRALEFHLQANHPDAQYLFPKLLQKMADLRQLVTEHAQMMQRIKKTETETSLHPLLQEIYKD
The note with it: read-out: EC50 μM HPPARδ.
Source text: as §1, §2

Structures can show the parent of a compound that is named as a salt. A value given as a limit tells only on which side of the number the result lay.

Broadly, the EC50 is the concentration giving half of the maximal effect.

With `CCCCc1ccc(-c2cc(C(=O)NCc3ccc(OC(C)(C)C(=O)O)c(C)c3)nn2C)cc1` [Example 29, 2-((4-[({[5-(4-butylphenyl)-1-methyl-1H-pyrazol-3-yl]carbonyl}amino)methyl]-2-methylphenyl}oxy)-2-methylpropanoic acid], the EC50 was 0.014 µM on hPPAR gamma, 0.029 µM at hPPAR alpha and greater than 25 µM at hPPAR delta.

Take `COc1cc(CNC(=O)c2cc(-c3ccc(CC(C)C)cc3)n(C)n2)ccc1OC(C)(C)C(=O)O` [Example 14]: the figures for the EC50 on hPPAR gamma, at hPPAR alpha and on hPPAR delta were 0.13 µM, 0.177 µM and greater than 10 µM, respectively.

As to `Cc1cc(CNC(=O)Cc2cc(-c3ccc(C(C)(C)C)cc3)nn2C)ccc1OC(C)(C)C(=O)O` [Example 43, 2-[(4-{[({3-[4-(1,1-dimethylethyl)phenyl]-1-methyl-1H-pyrazol-5-yl}acetyl)amino]methyl}-2-methylphenyl)oxy]-2-methylpropanoic acid], the EC50 at hPPAR gamma was 0.138 µM; at hPPAR alpha, 0.257 µM; on hPPAR delta, greater than 25 µM.

In the case of `COc1cc(CNC(=O)c2cc(-c3ccc(C(C)(C)C)cc3)nn2C)ccc1OC(C)(C)C(=O)O` [Example 12, 2-{[4-{[({3-[4-(1,1-dimethylethyl)phenyl]-1-methyl-1H-prazol-5-yl}carbonyl)amino]methyl}-2-(methyloxy)phenyl]oxy}-2-methyl propanoic acid], the EC50 at hPPAR gamma was 0.432 µM; on hPPAR alpha, 1.05 µM; at hPPAR delta, greater than 10 µM.

`Cc1cc(CNC(=O)c2cc(Cc3ccc(C(C)(C)C)cc3)nn2C)ccc1OC(C)(C)C(=O)O` [Example 46, 2-{[4-({[(3-{[4-(1,1-dimethylethyl)phenyl]methyl}-1-methyl-1H-pyrazol-5-yl)carbonyl]amino}methyl)-2-methylphenyl]oxy}-2-methylpropanoic acid]: the EC50 on hPPAR gamma was 0.353 µM; at hPPAR alpha it was 0.294 µM; on hPPAR delta, greater than 25 µM.

Turning to `CCn1nc(-c2ccc(C(C)(C)C)cc2)cc1C(=O)NCc1ccc(OC(C)(C)C(=O)O)c(C)c1` [Example 15, 2-[(4-{[({3-[4-(1,1-dimethylethyl)phenyl]-1-ethyl-1H-pyrazol-5-yl}carbonyl)amino]methyl}-2-methylphenyl)oxy]-2-methyl propanoic acid], the results for the EC50 on hPPAR gamma, on hPPAR alpha and on hPPAR delta were 0.024 µM, 0.075 µM and 2.44 µM, respectively.

For the compound `Cn1nc(-c2ccc(C(C)(C)C)cc2)cc1C(=O)NCc1ccc(OC(C)(C)C(=O)O)cc1` [Example 16, 12-[(4-{[({3-[4-[1,1-dimethylethyl)phenyl]-1-methyl-1H-pyrazol-5-yl}carbonyl)amino]methyl}phenyl)oxy]-2-methylpropanoic acid], the EC50 worked out at 1.09 µM at hPPAR gamma and 0.163 µM on hPPAR alpha.

As for `Cc1cc(CNC(=O)c2cc(-c3ccc(C(C)(C)C)cc3)n(CCN3CCOCC3)n2)ccc1OC(C)(C)C(=O)O` [Example 54, 2-[(4-{[({5-[4-(1,1-dimethylethyl)phenyl]-1-[2-(4-morpholinyl)ethyl]-1H-pyrazol-3-yl}carbonyl)amino]methyl}-2-methylphenyl)oxy]-2-methyl propanoic acid hydrochloride], the EC50 is greater than 25 µM at hPPAR gamma, 0.571 µM at hPPAR alpha and greater than 25 µM at hPPAR delta.

Take `CCn1nc(-c2ccc(C(C)(C)C)cc2)cc1C(=O)NCc1ccc(OC(C)(C)C(=O)O)c(OC)c1` [Example 5]: the EC50 on hPPAR gamma was 0.444 µM; at hPPAR alpha, 0.301 µM; on hPPAR delta it was greater than 10 µM.

In the case of `C=CCc1cc(CNC(=O)c2cc(-c3ccc(C(C)(C)C)cc3)nn2C)ccc1OC(C)(C)C(=O)O` [Example 3], the EC50 on hPPAR gamma was 0.212 µM; at hPPAR alpha, 0.1 µM; on hPPAR delta it was greater than 10 µM.

Consider `CCn1nc(C(=O)NCc2ccc(OC(C)(C)C(=O)O)c(C)c2)cc1-c1ccc(C(C)(C)C)cc1` [Example 13, 2-[(4-{[({5-[4-(1,1-dimethylethyl)phenyl]-1-ethyl-1H-pyrazol-3-yl}carbonyl)amino]methyl}-2-methylphenyl)oxy]-2-methylpropanoic acid], for which the EC50 on hPPAR gamma is 0.011 µM; at hPPAR alpha, 0.009 µM; at hPPAR delta, greater than 10 µM.

Turning to `Cc1cc(CNC(=O)c2cc(-c3cccc(N4CCCCC4)c3)nn2C)ccc1OC(C)(C)C(=O)O` [Example 42, 2-methyl-2-{2-methyl-4-[({[1-methyl-3-(3-piperidin-1-ylphenyl)-1H-pyrazol-5-yl]carbonyl}amino)methyl]phenoxy}propanoic acid], the EC50 on hPPAR gamma was 1.66 µM; at hPPAR alpha, 0.293 µM; at hPPAR delta, greater than 25 µM.

For the compound `Cc1cc(CNC(=O)c2cc(-c3ccc(N4CCCCC4)cc3)nn2C)ccc1OC(C)(C)C(=O)O` [Example 45], the EC50 at hPPAR gamma is 0.049 µM; at hPPAR alpha, 0.836 µM; at hPPAR delta, greater than 25 µM.

With `C=CCOc1ccc(-c2cc(C(=O)NCc3ccc(OC(C)(C)C(=O)O)c(C)c3)nn2C)cc1` [Example 59, 2-methyl-2-[(2-methyl-4-{[({1-methyl-5-[4-(2-propen-1-yloxy)phenyl]-1H-pyrazol-3-yl}carbonyl)amino]methyl}phenyl)oxy]propanoic acid], the EC50 on hPPAR gamma amounted to 0.028 µM; on hPPAR alpha, 0.094 µM.

As to `Cc1cc(CNC(=O)c2cc(-c3ccc(-c4ccccc4)cc3)n(C)n2)ccc1OC(C)(C)C(=O)O` [Example 22, 2-({4-[({[5-(4-biphenylyl)-1-methyl-1H-pyrazol-3-yl]carbonyl}amino)methyl]-2-methylphenyl}oxy)-2-methylpropanoic acid], the EC50 was 0.02 µM on hPPAR alpha and 1.55 µM at hPPAR delta.

On to `Cc1cc(CNC(=O)c2cc(-c3ccc(C(C)(C)C)cc3)n(C)n2)ccc1OC(C)(C)C(=O)O` [Example 1, 2-[(4-{[({5-[4-(1,1-dimethylethyl)phenyl]-1-methyl-1H-pyrazol-3-yl)carbonyl)amino]methyl}-2-methylphenyl)oxy]-2-methylpropanoic acid], for which the EC50 at hPPAR alpha came out at 0.014 µM; on hPPAR delta it was 5.45 µM.

Consider `Cn1nc(C(=O)NCc2ccc(OC(C)(C)C(=O)O)cc2)cc1-c1ccc(C(C)(C)C)cc1` [Example 17], for which the EC50 came out at 0.376 µM on hPPAR gamma and 0.07 µM at hPPAR alpha.

Turning to `Cc1cc(CNC(=O)c2cc(-c3ccc(C(C)(C)C)cc3)nn2C)ccc1OC(C)(C)C(=O)O` [Example 11, 2-[(4-{[({3-[4-(1,1-dimethylethyl)phenyl]-1-methyl-1H-pyrazol-5-yl}carbonyl)amino]methyl}-2-methylphenyl)oxy]-2-methylpropanoic acid], the EC50 is 0.05 µM at hPPAR alpha and 2.17 µM on hPPAR delta.

These data come from patent US20080021030A1, “Substituted Pyrazoles As Ppar Agonists” (priority 2003, published 2008).
